In article PMC8197230, “Orientated Immobilization of FAD-Dependent Glucose Dehydrogenase on Electrode by Carbohydrate-Binding Module Fusion for Efficient Glucose Assay” (International Journal of Molecular Sciences, 2021):

Key:
GDH-NL-CBM2 = tested on: T1, GDH-NL-CBM2; assay: PMS/DCIP spectrophotometric assay at […] nm, Michaelis-Menten non-linear fit; type: biochemical, Aspergillus niger; conditions: 0.1 M phosphate buffer pH 6.0, 37 °C; PMS and DCIP as electron acceptors; free enzyme
T1 construct: gene FAD-GDH; secreted from Pichia pastoris GS115, Ni-purified

GDH (wild-type FAD-GDH) = tested on: T2, GDH (wild-type FAD-GDH); assay: as above; type: biochemical, Aspergillus niger; conditions: 0.1 M phosphate buffer pH 6.0, 37 °C; PMS and DCIP as electron acceptors; free enzyme
T2 construct: signal peptide (first 63 bp, 21 residues) removed; C-terminal His tag kept; secreted from Pichia pastoris GS115 (pPIC9k), glycosylated; Ni-purified

- Km (GDH-NL-CBM2): 11.8 mM
- Km (GDH (wild-type FAD-GDH)): 12.3 mM
SMILES: OC[C@H]1OC(O)[C@H](O)[C@@H](O)[C@@H]1O (some centres unmarked) [glucose]
